≈ marks a conversion by molar mass, not a printed value.
Experiments:
[1] = Plasma drug concentration versus time after a single 10 mg dose; format: in vivo; conditions: golden hamster
Source text: Five hours later the plasma concentrations of both inhibitors were still above […], far above their competitive inhibition constants for ALDH-I.

[2] = physchem
[3] = Solubility in water / aqueous media
[4] = target: T1, ALDH-II (Homo sapiens, UniProt P00352); assay: Inhibition kinetics of ALDH-II, initial velocity method, formaldehyde as substrate
T1 sequence (P00352 1-501): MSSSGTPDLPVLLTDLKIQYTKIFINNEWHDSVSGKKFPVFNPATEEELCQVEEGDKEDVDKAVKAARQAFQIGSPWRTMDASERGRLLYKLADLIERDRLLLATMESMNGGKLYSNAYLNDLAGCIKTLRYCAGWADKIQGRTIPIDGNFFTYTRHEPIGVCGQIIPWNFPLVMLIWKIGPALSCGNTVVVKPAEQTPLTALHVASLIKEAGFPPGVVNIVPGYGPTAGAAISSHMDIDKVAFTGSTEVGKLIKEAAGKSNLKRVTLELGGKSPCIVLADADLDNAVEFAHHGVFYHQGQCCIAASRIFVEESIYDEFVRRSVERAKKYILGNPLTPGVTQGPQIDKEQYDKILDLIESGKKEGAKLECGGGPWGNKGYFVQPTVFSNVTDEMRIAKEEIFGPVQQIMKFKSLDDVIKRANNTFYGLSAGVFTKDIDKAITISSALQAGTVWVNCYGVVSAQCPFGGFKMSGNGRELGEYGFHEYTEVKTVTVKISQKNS
Description: The inhibition kinetics were studied by the initial velocity method (Dixon and Webb, 1979, Enzymes, 3rd ed., Longman, Great Britain). […] The initial reaction rates were measured in a pH 9.5 assay medium 0.1 11 in glycine-NaOH, 0. […] The enzyme reaction rates were followed by monitoring the production of NADH at 340 nm (ε-6.22 mM^-1 cm^-1) with a Varian Cary 219 spectrophotometer thermostated at 25° C. The kinetic data were analyzed by standard graphical methods.

[5] = target: T2, ALDH-I (Homo sapiens, UniProt P05091); assay: Reversibility of ALDH-I inhibition (preincubation, then dilution); format: biochemical; parameters: A liver sample (50 g wet weight) with the usual Caucasian ALDH phenotype (both ALDH-I and ALDH-II present); from tissue; host or cells: human liver (autopsy), purified by CM-52, AMP-agarose and DEAE HPLC
T2 sequence (P05091 18-517): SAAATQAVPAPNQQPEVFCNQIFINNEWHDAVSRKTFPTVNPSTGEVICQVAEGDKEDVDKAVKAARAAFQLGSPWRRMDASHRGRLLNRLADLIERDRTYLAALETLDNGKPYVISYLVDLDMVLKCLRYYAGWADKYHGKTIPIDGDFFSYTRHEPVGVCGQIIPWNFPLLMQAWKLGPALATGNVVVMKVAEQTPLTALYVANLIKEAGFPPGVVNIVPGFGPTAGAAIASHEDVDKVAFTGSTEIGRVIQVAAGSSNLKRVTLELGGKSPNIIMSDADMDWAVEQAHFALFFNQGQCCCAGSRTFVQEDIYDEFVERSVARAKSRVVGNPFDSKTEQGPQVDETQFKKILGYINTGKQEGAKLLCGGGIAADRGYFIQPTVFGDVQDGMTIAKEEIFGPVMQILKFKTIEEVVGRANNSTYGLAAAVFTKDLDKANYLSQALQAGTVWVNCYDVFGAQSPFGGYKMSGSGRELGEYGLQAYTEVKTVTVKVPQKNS

[6] = target: T1, ALDH-II; assay: ALDH-II inhibition by structurally related compounds, acetaldehyde as substrate; format: biochemical; parameters: A liver sample (50 g wet weight) with the usual Caucasian ALDH phenotype (both ALDH-I and ALDH-II present); from tissue; host or cells: human liver (autopsy), purified by CM-52, AMP-agarose and DEAE HPLC
Description: *ALDH activities were assayed at 25° C. in 0.1 M sodium
pyrophosphate buffer pH 9.5 containins 0.15 M KCl, 1 mM NAD^+, various
concentrations of inhibitors and 5 and 200 μM acetaldehyde for ALDH-I
and ALDH-II, respectively.
For the study of the inhibition of ALDH-I by structurally related compounds to generate the data shown in Tables IV and V, each individual compound was dissolved at different concentrations in methanol and was added to the assay medium as 10 μL aliquots. For controls, 10 […] of methanol was added to the assay medium. In a standard ALDH-I assay, the assay medium contains 0.1 M sodium pyrophosphate pH 9.5, 0.15 M KCl, 1 mM NAD^+, 1% methanol, 5 μM acetaldehyde, 5-10 nM ALDH-I and various concentrations of inhibitor. The enzyme reaction rates were measured by monitoring the production of NADH at 340 nm (ε=6.22 mM^-1 cm^-1) with a Varian Cary 219 spectrophotometer thermostated at 25° C. (Fong et al., 1989, supra). The inhibition of ALDH-I by the inhibitors was calculated as: [formula]
where Vo is the enzyme reaction rate measured in the absence of inhibitor, and where Vi is the enzyme reaction rate measured in the presence of inhibitor. […] IC50 values are related to the underlying Ki values.

SMILES: O=c1c(-c2ccc(O)cc2)coc2cc(O[C@@H]3O[C@H](CO)[C@@H](O)[C@H](O)[C@H]3O)ccc12 [Daidzin, 7-glucoside of daidzein]
- time to maximal plasma concentration after injection ([1]; i.p.): within about an hour after injection
- Cmax ([1]; plasma, ip, read-out: maximal plasma concentration): 6 µM
- solubility ([2]; 10% aqueous polyvinylpyrrolidone 40, organic solvent or mixture): ~2000 µM (≈ 833 µg/mL)
- solubility ([2]; 20% peg 400 in water, organic solvent or mixture): 4500 µM (≈ 1870 µg/mL)
- solubility ([2]; 20% peg/water, beta-cyclodextrin, organic solvent or mixture): 9400 µM (≈ 3910 µg/mL)
- solubility ([2]; saturated digitonin solution): ~2000 µM (≈ 833 µg/mL)
- solubility ([2]; water): 200 µM (≈ 83.3 µg/mL)
- solubility in polyethylene glycol 400 ([3]; PEG 400): highly soluble
- solubility in glycerol ([3]; glycerol): highly soluble
- Ki [4]: 20 µM
- reversibility of ALDH-I inhibition [5]: reversible
- inhibition at 0.001 µM ([5]; read-out: final inhibition after 100-fold dilution): 2%
- inhibition at 0.1 µM ([5]; read-out: inhibition after preincubation with daidzin): 70%
- IC50 [6]: 20 µM

Source: US6255497A, “Method for the inhibition of ALDH-I useful in the treatment of alcohol dependence or alcohol abuse” (priority 1998, dated 2001)
